Test results: patent US20230052740A1, “MODULATORS OF CIRCADIAN RHYTHMS AND USES THEREOF” (The Regents of the University of California, priority 2019, published 2023)
Like-named read-outs stand apart in the source and are kept apart here.

How the values were obtained:
[1] = Mouse pharmacokinetic (PK) studies; format: in vivo; conditions: for Brain/Plasma Ratio: 30′; for T1/2: plasma
MT2 = target: T1, MT2 (Homo sapiens, UniProt P49286); assay: cAMP assay (GloSensor), isoproterenol-stimulated cAMP in HEK cells; format: cell-based; parameters: expressed in transfected cells; host or cells: HEK-T (HEK-293 T) cells, co-transfected with GloSensor DNA; conditions: for hMT2 pEC50: FIG. 3D-3F, transiently expressed receptor, isoproterenol-stimulated cAMP production; for hMT2 Schild slope / hMT2 pKB: Schild analysis, competitive antagonism of melatonin
T1 sequence (P49286 1-362): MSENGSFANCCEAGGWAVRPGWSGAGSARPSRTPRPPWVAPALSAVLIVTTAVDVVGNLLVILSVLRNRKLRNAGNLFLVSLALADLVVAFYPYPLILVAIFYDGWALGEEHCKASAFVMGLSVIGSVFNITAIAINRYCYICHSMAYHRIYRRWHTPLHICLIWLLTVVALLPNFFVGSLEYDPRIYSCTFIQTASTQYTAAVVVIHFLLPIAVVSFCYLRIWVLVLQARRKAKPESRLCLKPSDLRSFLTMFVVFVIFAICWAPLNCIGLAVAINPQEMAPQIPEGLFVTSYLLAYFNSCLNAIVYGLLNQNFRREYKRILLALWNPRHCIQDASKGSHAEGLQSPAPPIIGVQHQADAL
Experimental: MT1 and MT2 receptors were tested using Promega's spilt luciferase based GboSensor cAMP biosensor technology. HEK-T cells were plated in 15 cm cell culture dish (at a density of 18 million cells) containing DMEM composed of 10% dialyzed FBS, 2 mM L-glutamine, 100 units/ml penicillin G, 100 μg/ml streptomycin for 4-6 hour. Then, cells were co-transfected with 8 μg of construct which encodes either MT1 or MT2 (de-Tangonized constructs) and […] of Glosensor DNA. […] The next day, cell medium were discarded and loaded with 20 μl of assay buffer (1×HBSS, 20 mM HEPES, pH 7.4, 0.1% BSA). To measure agonist activity of MT1 or MT2 receptor, 10 μl of test compound solution at 3× final concentration was added for 15 minutes followed by addition of 10 μl of luciferin/isoproterenol mixture (at a final concentration of 4 mM and 200 nM respectively) for another 15 mins for luminescence quantification. Then, plates were counted using SpectraMax luminescence reader (Molecular Device). Data were analyzed using GraphPad Prism 6.0.

C3H/HeN mice = assay: Phase shift of circadian running wheel activity onset in constant dark; format: in vivo, mouse; conditions: for advance of the onset of activity: 0.9 μg/mouse (~30 μg/Kg) s.c., CT10 (dusk), 3 days; for advance of the onset of running wheel activity: 30 μg/mouse (1 mg/Kg) s.c., CT10, WT; for EC50 of in vivo activity (circadian phase shift): mouse
Excerpt: Male and female C3H/HeN (C3H) wild-type (WT), MT1 knockout (MT1KO), and MT2 knockout (MT2KO) mice (average 6.28 months) used in this study were raised in our breeding colony at University at Buffalo. […] Genotype was confirmed using tail samples at the end of each experiment and was verified periodically during the tenure of the colony. The strains of mice in our breeding colony were re-derived periodically by backcrossing with WT mice to reduce genetic drift.
Mice were group housed (3-5 per cage) with corncob bedding in polycarbonate translucent cages (30×19 cm) and maintained in a 14/10 light-dark (LD) cycle (Zeitgeber time 0 or ZT0 corresponds to Lights ON and ZT 14 to Lights OFF) in temperature and humidity controlled rooms with ad libitum access to food and water in the Laboratory Animal Facility at the University at Buffalo. Light levels were 200-300 lux at the level of the cage. Treatments and animal care performed in the dark were under a dim red safelight (15 watts, Kodak 1A filter) with illuminance of less than 3-5 lux (Benloucif, S. & Dubocovich, M. L. J Biol Rhythms 11, 113-125, (1996). All experimental procedures using mice were conducted in accordance with guidelines set forth by the National Institutes of Health and approved by the University at Buffalo Institutional Animal Care and Use Committee.
Circadian rhythm phase was determined for each mouse using the onset of running wheel activity defined as CT12 (Circadian Time 12). Running wheel activity was measured continuously via magnetic microswitches detecting wheel revolutions with a computer equipped with Clocklab data collection Software™ (Actimetrics: Wilmette, Ill.). All actigraphy data was visualized and analyzed using ClockLab™ and MATLAB™ software. All mice were individually housed in cages (33×15 cm) equipped with running wheels in light-tight ventilated cabinets with controlled temperature and LD cycles (Phenome Technologies: Skokie, Ill.). Male and female mice were housed in separate cabinets for all experiments.
Following a period of 14 days in a LD cycle mice were placed in constant dark (DD) beginning at ZT12 (dark onset). Mice were keptin DD (2-3 weeks) untilastable free-running phase of running wheel activity rhythm onset was established. Circadian times of treatment were predicated from best fit lines of running wheel activity onsets for of running either pre (7-14 days) and post (7-14 days) treatment. Treatment times were at CT10 (CT9-11) and CT2 (CT1-3) within a 3 hour window. […] Vehicle or drug treatments were repeated for 3 consecutive days at the selected circadian time following the three-pulse treatment protocol described (Benloucif, supra). Phase shifts were quantified using the best-fit lines for onsets of activity during pre and post treatment periods. Differences are characterized as phase delays (pre-treatment ahead of post treatment best fit line onset) or phase advances (post treatment ahead of pre treatment best fit line onset) of running wheel activity onset rhythms.
All statistical analyses as described in further detail for each experiment were conducted using GraphPad Prism 8™ (La Jolla, Calif.). All data sets were visualized for normality using QQ plots of predicted vs. actual residuals. Actigraphy data was generated for visualization blind to treatment prior to the quantification and statistical analysis stages. […] Data in FIGS. 4F & 4G were compared via a two-way ANOVA (3×2: genotype x treatment) with Tukey's post hoc analyses (P<0.05). Comparisons for FIG. 4L, FIGS. 11H-11J were made by mixed effect two-way repeated measures ANOVA (treatment×time) with Sidak's post hoc test (P<0.05). Number of days to re-entrainment was compared via one-way ANOVA or two-way ANOVA for FIG. 4M & FIG. 4N with a Dunnet's & Tukey's post hoc test (P<0.05) respectively. P values and values for statistical analyses are included in figure legends. […]

Row | SMILES | AUC [1] | CL [1] | Cmax [1] | Vss [1] | Brain/Plasma Ratio [1] | T1/2 [1] | hMT2 pEC50 (MT2) | hMT2 Schild slope (MT2) | hMT2 pKB (MT2) | advance of the onset of activity (C3H/HeN mice; WT) | advance of the onset of running wheel activity (C3H/HeN mice; in words) | EC50 of in vivo activity (circadian phase shift) (C3H/HeN mice) | also measured
1 | COc1ccc(Br)c(CNc2cccnc2)c1 [ZINC128734226] | 282.1 ng·h/mL | 117.9 mL/min/kg | 1922.8 ng/mL | 1.11 L/kg | 1.58 (30′) | 17.4 min | 8.15±0.09 | – | – | – | – | – | Emax (MT2; HEK293, FIG. 3F, normalized to maximal melatonin effect, read-out: hMT2 Emax): 89 ± 3%; Emax (MT2; HEK293, Table 2, agonist, normalized to melatonin response, read-out: MT2 % Emax (converted)): 89%; Emax (MT2; HEK293, Table 4, agonist, read-out: Emax % MT2): 80%; pIC50 MT2 (MT2; Table 4, agonist): 8.2; EC50 (MT2; agonist, isoproterenol-stimulated cAMP inhibition, read-out: EC50 at MT2): 6.3 nM; effect on circadian phase (C3H/HeN mice; 0.9 or 30 μg/Kg doses, CT10, in words): did not significantly affect circadian phase
2 | Clc1ccc(CNc2cccc(-c3nnc[nH]3)c2)c(Br)c1 [ZINC555417447] | 494.5 ng·h/mL | 67.11 mL/min/kg | 1948.6 ng/mL | 1.11 L/kg | 3.03 (30′) | 16.2 min | 5.66±0.10 | 1.3±0.4 | 6.2±0.1 | approximately 1 hour | advanced the onset of running wheel activity with an amplitude equivalent to, or even larger than that of melatonin | 30 µg/kg | Emax (MT2; HEK293, FIG. 3D-3E, normalized to isoproterenol-stimulated basal activity, read-out: hMT2 Emax): -84 ± 9%; Emax (MT2; HEK293, Table 2, cell marked Inverse (inverse agonist), read-out: MT2 % Emax (converted)): 84%; EC50 (MT2; Table 4, IA (inverse agonist), read-out: pEC50 MT2 (IA) (converted)): 1000 nM; phase shift of RW activity onset at CT2 (C3H/HeN mice; 30 μg/mouse s.c., CT2 (dawn), WT, MT1KO, MT2KO, in words): did not phase shift RW activity onset; phase advance activity in MT1KO mice (C3H/HeN mice; 30 μg/mouse s.c., CT10, MT1KO, in words): ablation of the activity; phase advance activity in MT2KO mice (C3H/HeN mice; 30 μg/mouse s.c., CT10, MT2KO, in words): maintenance of its activity
3 | CC(C)c1ccc(CNc2cccc(-c3ncn[nH]3)c2)cc1 [ZINC157673384] | 563.8 ng·h/mL | 58.48 mL/min/kg | 1299.6 ng/mL | 1.38 L/kg | 1.43 (30′) | 19.2 min | 6.18±0.04 | 1.0±0.1 | 6.7±0.1 | approximately 1 hour | advanced the onset of running wheel activity with an amplitude equivalent to, or even larger than that of melatonin | 30 µg/kg | hMT2 Emax (MT2; FIG. 3D-3E, normalized to isoproterenol-stimulated basal activity): −153±14%; MT2 % Emax (MT2; Table 2, cell marked Inverse (inverse agonist)): 153 ± 14%; pEC50 MT2 (IA) (MT2; Table 4, IA (inverse agonist)): 6.5
